Laboratory results published in the supplement of paper PMC10627819.

Columns and labels:
[1] = system: B. subtilis 168; test: Bliss interaction score (quartile over a dose matrix) (fitness difference); higher = more antagonism (negative = synergy)
How it was run: (§1)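 The Bliss score was calculated by subtracting the expected fitness, the product of single-drug values, from the observed fitness. OD595 at entry into stationary phase, over the plate's robust no-drug mean and capped at 1, served as the fitness readout. Single-drug values were inferred from combination data, and scores are summarised by quartiles across technical, biological and donor/recipient replicates.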

[2] = system: S. pneumoniae D39V; test: as above
How it was run: as §1

[3] = system: S. aureus Newman; test: as above
How it was run: as §1

[4] = system: S. aureus DSM 20231; test: as above
How it was run: as §1

[5] = system: S. pneumoniae D39V; test: fitness (endpoint OD595 vs no drug) (fraction); higher = more growth
How it was run: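 Fitness compares growth at the stationary-phase transition with the robust mean of no-drug control wells, as a ratio of optical densities. The ratio is capped at 1. Wells of 384-well plates held 30 µl, or 55 µl for S. pneumoniae, inoculated at OD595 0.01. Readings at OD595 every 30 min for 14 h at 37 °C were corrected against the first reading.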
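Wherever Bliss interaction score (quartile over a dose matrix) is given: first quartile when negative (synergy) and third quartile when positive (antagonism).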

CC[C@H]1OC(=O)[C@H](C)[C@@H](O[C@H]2C[C@@](C)(OC)[C@@H](O)[C@H](C)O2)[C@H](C)[C@@H](O[C@@H]2O[C@H](C)C[C@H](N(C)C)[C@H]2O)[C@](C)(OC)C[C@@H](C)C(=O)[C@H](C)[C@@H](O)[C@]1(C)O [Clarithromycin] + CCC(C)C1C(=O)NC(=C)C(=O)NC(C(=O)NC(CSCC(C(=O)N1)NC(=O)/C(=C/C)/NC(=O)C(C(C)CC)N)C(=O)NC2C(SCC(NC(=O)CNC(=O)C3CCCN3C2=O)C(=O)NC(CCCCN)C(=O)NC4C(SCC(NC(=O)CNC(=O)C(NC(=O)C(NC(=O)C(NC(=O)CNC4=O)C)CC(C)C)CCSC)C(=O)NC(CC(=O)N)C(=O)NC(CCSC)C(=O)NC(CCCCN)C(=O)NC5C(SCC6C(=O)NC(C(=O)NC(CSC(C(C(=O)N6)NC(=O)C(NC5=O)C)C)C(=O)NC(CO)C(=O)NC(C(C)CC)C(=O)NC(CC7=CN=CN7)C(=O)NC(C(C)C)C(=O)NC(=C)C(=O)NC(CCCCN)C(=O)O)CC8=CN=CN8)C)C)C)CC(C)C [Nisin]
main component drawn
Settings | Bliss interaction score
[1] | 0.0377
[2] | 0.0379
[3] | -0.0489
[4] | -0.0781

fitness, [5], one replicate, main component drawn
Settings | first compound 0.007812 µg/mL | first compound 0.01562 µg/mL | first compound 0.03125 µg/mL
partner 1.6 µg/mL | 0.0546 | 0.105 | 0.0716
partner 3.2 µg/mL | 0.0468 | 0.0811 | 0.0837
partner 6.4 µg/mL | 0.0495 | 0.123 | 0.0731

[5], main component drawn
Settings | fitness
first compound 0.0625 µg/mL, partner 0.4275 µg/mL | 0.704
first compound 0.0625 µg/mL, partner 1.71 µg/mL | 0.0947
first compound 0.07 µg/mL, partner 1.6 µg/mL | 0.0167
first compound 0.07 µg/mL, partner 3.2 µg/mL | 0.0245
first compound 0.07 µg/mL, partner 6.4 µg/mL | 0.0168
first compound 0.125 µg/mL, partner 0.4275 µg/mL | 0.233
first compound 0.125 µg/mL, partner 0.855 µg/mL | 0.118
first compound 0.125 µg/mL, partner 1.71 µg/mL | 0.0991
first compound 0.14 µg/mL, partner 1.6 µg/mL | 0.019
first compound 0.14 µg/mL, partner 3.2 µg/mL | 0.0272
first compound 0.14 µg/mL, partner 6.4 µg/mL | 0.0323
first compound 0.25 µg/mL, partner 0.4275 µg/mL | 0.0872
first compound 0.25 µg/mL, partner 0.855 µg/mL | 0.0757
first compound 0.25 µg/mL, partner 1.71 µg/mL | 0.0969
first compound 0.28 µg/mL, partner 1.6 µg/mL | 0.0103
first compound 0.28 µg/mL, partner 3.2 µg/mL | 0.0421
first compound 0.28 µg/mL, partner 6.4 µg/mL | 0.0171

CC[C@H]1OC(=O)[C@H](C)[C@@H](O[C@H]2C[C@@](C)(OC)[C@@H](O)[C@H](C)O2)[C@H](C)[C@@H](O[C@@H]2O[C@H](C)C[C@H](N(C)C)[C@H]2O)[C@](C)(OC)C[C@@H](C)C(=O)[C@H](C)[C@@H](O)[C@]1(C)O [Clarithromycin] + CCC[C@@H]1C[C@@H](C(=O)N[C@@H]([C@H]2O[C@H](SC)[C@H](O)[C@@H](O)[C@H]2O)[C@@H](C)O)N(C)C1 [Lincomycin]
Settings | Bliss interaction score
[1] | 0.103
[2] | 0.0426
[3] | -0.144
[4] | -0.12

fitness, [5], one replicate
Settings | first compound 0.007812 µg/mL | first compound 0.01562 µg/mL | first compound 0.03125 µg/mL
partner 0.2 µg/mL | 0.614 | 0.678 | 0.559
partner 0.4 µg/mL | 0.545 | 0.619 | 0.395
partner 0.8 µg/mL | 0.0517 | 0.0966 | 0.0574

fitness, [5]
Settings | first compound 0.0625 µg/mL | first compound 0.07 µg/mL | first compound 0.125 µg/mL | first compound 0.14 µg/mL | first compound 0.25 µg/mL | first compound 0.28 µg/mL
partner 0.2 µg/mL | – | 0.0703 | – | 0.063 | – | 0.0359
partner 0.215 µg/mL | 0.656 | – | 0.487 | – | 0.328 | –
partner 0.4 µg/mL | – | 0.0783 | – | 0.0665 | – | 0.035
partner 0.43 µg/mL | 0.599 | – | 0.367 | – | 0.262 | –
partner 0.8 µg/mL | – | 0.0297 | – | 0.0353 | – | 0.0359
partner 0.86 µg/mL | 0.269 | – | 0.131 | – | 0.0936 | –

CC[C@H]1OC(=O)[C@H](C)[C@@H](O[C@H]2C[C@@](C)(OC)[C@@H](O)[C@H](C)O2)[C@H](C)[C@@H](O[C@@H]2O[C@H](C)C[C@H](N(C)C)[C@H]2O)[C@](C)(OC)C[C@@H](C)C(=O)[C@H](C)[C@@H](O)[C@]1(C)O [Clarithromycin] + CCN(CC)CCOC(=O)c1ccc(N)cc1 [Procaine]
Settings | Bliss interaction score
[1] | 0.0395
[2] | 0.0576
[3] | 0.0711
[4] | 0.0493

fitness, [5], one replicate
Settings | first compound 0.007812 µg/mL | first compound 0.01562 µg/mL | first compound 0.03125 µg/mL | first compound 0.0625 µg/mL | first compound 0.125 µg/mL | first compound 0.25 µg/mL
partner 85.5 µg/mL | 0.962 | 0.921 | 0.691 | 0.659 | 0.251 | 0.102
partner 171 µg/mL | 0.983 | 0.903 | 0.702 | 0.77 | 0.284 | 0.169
partner 342 µg/mL | 0.993 | 0.923 | 0.719 | 0.595 | 0.464 | 0.33

fitness, [5]
Settings | first compound 0.07 µg/mL | first compound 0.14 µg/mL | first compound 0.28 µg/mL
partner 85.5 µg/mL | 0.125 | 0.0737 | 0.0531
partner 171 µg/mL | 0.141 | 0.065 | 0.0466
partner 342 µg/mL | 0.141 | 0.0668 | 0.061

CC[C@H]1OC(=O)[C@H](C)[C@@H](O[C@H]2C[C@@](C)(OC)[C@@H](O)[C@H](C)O2)[C@H](C)[C@@H](O[C@@H]2O[C@H](C)C[C@H](N(C)C)[C@H]2O)[C@](C)(OC)C[C@@H](C)C(=O)[C@H](C)[C@@H](O)[C@]1(C)O [Clarithromycin] + CN1C2=CC=CC=C2N=C3C1=CC=CC3=O [Pyocyanin]
Settings | Bliss interaction score
[1] | 0.0334
[2] | -0.0433
[3] | -0.0697
[4] | -0.0903

fitness, [5], one replicate
Settings | first compound 0.007812 µg/mL | first compound 0.01562 µg/mL | first compound 0.03125 µg/mL | first compound 0.0625 µg/mL | first compound 0.125 µg/mL | first compound 0.25 µg/mL
partner 0.325 µg/mL | 0.965 | 0.884 | 0.682 | 0.757 | 0.486 | 0.112
partner 0.65 µg/mL | 0.928 | 0.88 | 0.651 | 0.75 | 0.501 | 0.273
partner 1.3 µg/mL | 0.747 | 0.695 | 0.525 | – | – | –

fitness, [5]
Settings | first compound 0.07 µg/mL | first compound 0.14 µg/mL | first compound 0.28 µg/mL
partner 0.325 µg/mL | 0.0912 | 0.0902 | 0.0525
partner 0.65 µg/mL | 0.0867 | 0.0888 | 0.0453
partner 1.3 µg/mL | 0.0798 | 0.0783 | 0.0672

O=C1CN(/N=C/c2ccc([N+](=O)[O-])o2)C(=O)N1 [Nitrofurantoin] + CN[C@H](CC(C)C)C(=O)N[C@H]1C(=O)N[C@@H](CC(N)=O)C(=O)N[C@H]2C(=O)N[C@H]3C(=O)N[C@H](C(=O)N[C@H](C(=O)O)c4cc(O)cc(O)c4-c4cc3ccc4O)[C@H](O[C@H]3C[C@](C)(N)[C@@H](O)[C@H](C)O3)c3ccc(c(Cl)c3)Oc3cc2cc(c3O[C@@H]2O[C@H](CO)[C@@H](O)[C@H](O)[C@H]2O[C@H]2C[C@](C)(NCc3ccc(-c4ccc(Cl)cc4)cc3)[C@@H](O)[C@H](C)O2)Oc2ccc(cc2Cl)[C@H]1O [Oritavancin]
Settings | Bliss interaction score
[1] | 0.0189
[2] | -0.0352
[3] | -0.118
[4] | -0.0379

O=C1CN(/N=C/c2ccc([N+](=O)[O-])o2)C(=O)N1 [Nitrofurantoin] + CO[C@@H]1[C@@H](OC(N)=O)[C@@H](O)[C@H](Oc2ccc3c(O)c(NC(=O)c4ccc(O)c(CC=C(C)C)c4)c(=O)oc3c2C)OC1(C)C [Novobiocin]
Settings | Bliss interaction score
[1] | 0.0731
[2] | 0.0513
[3] | 0.0827
[4] | 0.0482

O=C1CN(/N=C/c2ccc([N+](=O)[O-])o2)C(=O)N1 [Nitrofurantoin] + COc1cc(Cc2cnc(N)nc2N)cc(OC)c1OC [Trimethoprim]
Settings | Bliss interaction score
[1] | -0.181
[2] | -0.553
[3] | 0.0663
[4] | -0.0418

O=C1CN(/N=C/c2ccc([N+](=O)[O-])o2)C(=O)N1 [Nitrofurantoin] + Oc1cc(Cl)ccc1Oc1ccc(Cl)cc1Cl [Triclosan]
Settings | Bliss interaction score
[1] | -0.039
[2] | 0.0809
[3] | 0.0328
[4] | -0.014

C/C(=C\C(=O)OCCCCCCCCC(=O)O)C[C@@H]1OC[C@H](C[C@@H]2O[C@H]2[C@@H](C)[C@H](C)O)[C@@H](O)[C@H]1O [Pseudomonic acid] + CC[C@H]1OC(=O)[C@H](C)C(=O)[C@H](C)[C@@H](O[C@@H]2O[C@H](C)C[C@H](N(C)C)[C@H]2O)[C@](C)(OC)C[C@@H](C)C(=O)[C@H](C)[C@H]2N(CCCCn3cnc(-c4cccnc4)c3)C(=O)O[C@]12C [Telithromycin]
Settings | Bliss interaction score
[1] | 0.0359
[2] | -0.0569
[3] | -0.028
[4] | 0.0119

C/C(=C\C(=O)OCCCCCCCCC(=O)O)C[C@@H]1OC[C@H](C[C@@H]2O[C@H]2[C@@H](C)[C@H](C)O)[C@@H](O)[C@H]1O [Pseudomonic acid] + COc1cc(Cc2cnc(N)nc2N)cc(OC)c1OC [Trimethoprim]
Settings | Bliss interaction score
[1] | 0.0595
[2] | -0.143
[3] | 0.0264
[4] | 0.0182

C/C(=C\C(=O)OCCCCCCCCC(=O)O)C[C@@H]1OC[C@H](C[C@@H]2O[C@H]2[C@@H](C)[C@H](C)O)[C@@H](O)[C@H]1O [Pseudomonic acid] + Oc1cc(Cl)ccc1Oc1ccc(Cl)cc1Cl [Triclosan]
Settings | Bliss interaction score
[1] | -0.0255
[2] | 0.0696
[3] | -0.0174
[4] | -0.0069

CCCCCCCCCC(=O)N[C@H]1[C@H](Oc2c3cc4cc2Oc2ccc(cc2Cl)[C@@H](O[C@@H]2O[C@H](CO)[C@@H](O)[C@H](O)[C@H]2NC(C)=O)[C@@H]2NC(=O)[C@H](NC(=O)[C@@H]4NC(=O)[C@H]4NC(=O)[C@@H](Cc5ccc(c(Cl)c5)O3)NC(=O)[C@H](N)c3ccc(O)c(c3)Oc3cc(O)cc4c3)c3ccc(O)c(c3)-c3c(O[C@H]4O[C@H](CO)[C@@H](O)[C@H](O)[C@@H]4O)cc(O)cc3[C@@H](C(=O)O)NC2=O)O[C@H](CO)[C@@H](O)[C@@H]1O [Teicoplanin] + CC[C@H]1OC(=O)[C@H](C)C(=O)[C@H](C)[C@@H](O[C@@H]2O[C@H](C)C[C@H](N(C)C)[C@H]2O)[C@](C)(OC)C[C@@H](C)C(=O)[C@H](C)[C@H]2N(CCCCn3cnc(-c4cccnc4)c3)C(=O)O[C@]12C [Telithromycin]
main component drawn
Settings | Bliss interaction score
[1] | 0.0347
[2] | 0.0575
[3] | 0.0616
[4] | 0.0617

CCCCCCCCCC(=O)N[C@H]1[C@H](Oc2c3cc4cc2Oc2ccc(cc2Cl)[C@@H](O[C@@H]2O[C@H](CO)[C@@H](O)[C@H](O)[C@H]2NC(C)=O)[C@@H]2NC(=O)[C@H](NC(=O)[C@@H]4NC(=O)[C@H]4NC(=O)[C@@H](Cc5ccc(c(Cl)c5)O3)NC(=O)[C@H](N)c3ccc(O)c(c3)Oc3cc(O)cc4c3)c3ccc(O)c(c3)-c3c(O[C@H]4O[C@H](CO)[C@@H](O)[C@H](O)[C@@H]4O)cc(O)cc3[C@@H](C(=O)O)NC2=O)O[C@H](CO)[C@@H](O)[C@@H]1O [Teicoplanin] + Oc1cc(Cl)ccc1Oc1ccc(Cl)cc1Cl [Triclosan]
main component drawn
Settings | Bliss interaction score
[1] | 0.0943
[2] | -0.106
[3] | -0.0356
[4] | 0.0695
